Laboratory results: BindingDB's records for doi:10.1021/jm970517u (Merck Research Laboratories, 1998)

Test: Half maximal inhibition of binding of [125I]CCK-8 to Cholecystokinin type B receptor in guinea pig cerebral cortex.

| SMILES | IC50 [nM] |
| --- | --- |
| CC(=O)Nc1ccc(CCC(=O)N[C@@H]2N=C(c3ccccc3)c3ccccc3N(C)C2=O)cc1 [3-(4-Acetylamino-phenyl)-N-((R)-1-methyl-2-oxo-5-phenyl-2,3-dihydro-1H-benzo[e][1,4]diazepin-3-yl)-propionamide] | > 1000 |
| CN1C(=O)[C@H](NC(=O)CCc2ccc(N)cc2)N=C(c2ccccc2)c2ccccc21 [3-(4-Amino-phenyl)-N-((R)-1-methyl-2-oxo-5-phenyl-2,3-dihydro-1H-benzo[e][1,4]diazepin-3-yl)-propionamide] | > 1000 |
| CC(C)N1C(=O)[C@H](NC(=O)Cc2cc(Cl)cc(Cl)c2)N=C(c2ccccc2)c2ccccc21 [2-(3,5-Dichloro-phenyl)-N-((R)-1-isopropyl-2-oxo-5-phenyl-2,3-dihydro-1H-benzo[e][1,4]diazepin-3-yl)-acetamide] | > 1000 |
| CN1C(=O)[C@H](NC(=O)C(N)Cc2ccccc2)N=C(c2ccccc2)c2ccccc21 (stereo partly drawn) [2-Amino-N-((R)-1-methyl-2-oxo-5-phenyl-2,3-dihydro-1H-benzo[e][1,4]diazepin-3-yl)-3-phenyl-propionamide] | > 1000 |
| O=C(Cc1ccc(C(F)(F)F)cc1C(F)(F)F)N[C@H]1N=C(c2ccccc2)c2ccccc2N(CC(F)(F)F)C1=O [2-(2,4-Bis-trifluoromethyl-phenyl)-N-[(S)-2-oxo-5-phenyl-1-(2,2,2-trifluoro-ethyl)-2,3-dihydro-1H-benzo[e][1,4]diazepin-3-yl]-acetamide] | > 1000 |
| CN1C(=O)[C@H](NC(=O)Cc2ccccc2)N=C(c2ccccc2)c2ccccc21 [N-((R)-1-Methyl-2-oxo-5-phenyl-2,3-dihydro-1H-benzo[e][1,4]diazepin-3-yl)-2-phenyl-acetamide] | > 1000 |
| CN1C(=O)[C@H](NC(=O)CCC2CCCCC2)N=C(c2ccccc2)c2ccccc21 [3-Cyclohexyl-N-((R)-1-methyl-2-oxo-5-phenyl-2,3-dihydro-1H-benzo[e][1,4]diazepin-3-yl)-propionamide] | > 1000 |
| O=C(Cc1ccc(C(F)(F)F)cc1C(F)(F)F)N[C@@H]1N=C(c2ccccc2)c2ccccc2N(CC(F)(F)F)C1=O [2-(2,4-Bis-trifluoromethyl-phenyl)-N-[(R)-2-oxo-5-phenyl-1-(2,2,2-trifluoro-ethyl)-2,3-dihydro-1H-benzo[e][1,4]diazepin-3-yl]-acetamide] | > 1000 |
| CN1C(=O)[C@H](NC(=O)CCc2ccccc2)N=C(c2ccccc2)c2ccccc21 [(R)-N-(1-methyl-2-oxo-5-phenyl-2,3-dihydro-1H-benzo[e][1,4]diazepin-3-yl)-3-phenylpropanamide] | > 1000 |
| CC(C)N1C(=O)[C@H](NC(=O)CCC2CCCCC2)N=C(c2ccccc2)c2ccccc21 [3-Cyclohexyl-N-((R)-1-isopropyl-2-oxo-5-phenyl-2,3-dihydro-1H-benzo[e][1,4]diazepin-3-yl)-propionamide] | > 1000 |
| CN(C)CCN1C(=O)C(NC(=O)CCc2ccc(Cl)cc2Cl)N=C(c2ccccc2)c2ccccc21 (centres undefined) [3-(2,4-Dichloro-phenyl)-N-[1-(2-dimethylamino-ethyl)-2-oxo-5-phenyl-2,3-dihydro-1H-benzo[e][1,4]diazepin-3-yl]-propionamide] | > 1000 |
| CN1C(=O)[C@H](NC(=O)CCc2ccc(Cl)cc2Cl)N=C(c2ccccc2)c2ccccc21 [3-(2,4-Dichloro-phenyl)-N-((R)-1-methyl-2-oxo-5-phenyl-2,3-dihydro-1H-benzo[e][1,4]diazepin-3-yl)-propionamide] | > 1000 |
| CN1C(=O)[C@H](NC(=O)c2ccccc2)N=C(c2ccccc2)c2ccccc21 [N-((R)-1-Methyl-2-oxo-5-phenyl-2,3-dihydro-1H-benzo[e][1,4]diazepin-3-yl)-benzamide] | > 1000 |
| CN1C(=O)[C@H](NC(=O)/C=C/c2ccc(Cl)cc2Cl)N=C(c2ccccc2)c2ccccc21 [(E)-3-(2,4-Dichloro-phenyl)-N-((R)-1-methyl-2-oxo-5-phenyl-2,3-dihydro-1H-benzo[e][1,4]diazepin-3-yl)-acrylamide] | > 1000 |
